Experimental data taken from patent US20240182531A1, “KV1.3 Blockers” (priority 2021, published 2024).
Where a SMILES comes first, the peptide text is derived from it. Bridges are numbered along the chain shown (N, C = ends).

Experiments:
human Kv1.2 = molecular target: T1, human Kv1.2 (Homo sapiens, UniProt P16389); experiment: cell-based; conditions: ratio of patch clamp IC50 values
T1 construct: expressed in transfected cells; host or cells: CHO

human Kv1.1 = molecular target: T2, human Kv1.1 (Homo sapiens, UniProt Q09470); experiment: cell-based; conditions: ratio of patch clamp IC50 values
T2 construct: expressed in transfected cells; host or cells: CHO

Rat whole blood = Rat whole blood (Rattus norvegicus, UniProt P15384); type: cell-based; conditions: IL-17A release, thapsigargin, 24 Hr, at least 2 replicates
human Kv1.6 = molecular target: T3, human Kv1.6 (Homo sapiens, UniProt P17658); experiment: cell-based; conditions: ratio of patch clamp IC50 values
T3 construct: expressed in transfected cells; host or cells: CHO
T3 sequence (P17658 whole entry): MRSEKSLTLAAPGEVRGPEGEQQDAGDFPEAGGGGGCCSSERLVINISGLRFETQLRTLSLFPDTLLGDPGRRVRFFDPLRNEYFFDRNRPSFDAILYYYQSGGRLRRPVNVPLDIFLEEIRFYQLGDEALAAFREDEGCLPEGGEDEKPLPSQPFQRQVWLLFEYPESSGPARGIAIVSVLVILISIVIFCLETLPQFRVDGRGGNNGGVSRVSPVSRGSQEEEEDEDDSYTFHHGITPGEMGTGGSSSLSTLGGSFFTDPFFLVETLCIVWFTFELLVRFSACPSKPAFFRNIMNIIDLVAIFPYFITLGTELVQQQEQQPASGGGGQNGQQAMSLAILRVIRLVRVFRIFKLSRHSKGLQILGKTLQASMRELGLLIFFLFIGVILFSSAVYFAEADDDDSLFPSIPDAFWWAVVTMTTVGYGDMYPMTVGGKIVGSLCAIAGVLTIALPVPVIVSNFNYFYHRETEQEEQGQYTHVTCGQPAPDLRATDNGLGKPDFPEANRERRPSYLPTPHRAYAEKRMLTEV

T2 sequence (Q09470 whole entry): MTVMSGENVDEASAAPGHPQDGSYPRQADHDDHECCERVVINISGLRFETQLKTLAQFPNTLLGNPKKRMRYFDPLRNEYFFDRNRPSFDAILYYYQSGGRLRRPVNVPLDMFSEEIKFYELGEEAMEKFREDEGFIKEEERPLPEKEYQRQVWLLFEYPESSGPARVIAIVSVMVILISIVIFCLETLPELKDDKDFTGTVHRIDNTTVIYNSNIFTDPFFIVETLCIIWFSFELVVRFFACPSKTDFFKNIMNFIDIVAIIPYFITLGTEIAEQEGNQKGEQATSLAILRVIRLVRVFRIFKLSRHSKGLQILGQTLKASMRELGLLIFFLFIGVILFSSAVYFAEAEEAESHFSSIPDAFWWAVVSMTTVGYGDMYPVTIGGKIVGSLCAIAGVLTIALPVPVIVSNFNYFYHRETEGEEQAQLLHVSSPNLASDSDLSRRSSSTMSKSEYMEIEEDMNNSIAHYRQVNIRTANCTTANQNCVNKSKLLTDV
Chain of Rat whole blood (P15384 whole entry): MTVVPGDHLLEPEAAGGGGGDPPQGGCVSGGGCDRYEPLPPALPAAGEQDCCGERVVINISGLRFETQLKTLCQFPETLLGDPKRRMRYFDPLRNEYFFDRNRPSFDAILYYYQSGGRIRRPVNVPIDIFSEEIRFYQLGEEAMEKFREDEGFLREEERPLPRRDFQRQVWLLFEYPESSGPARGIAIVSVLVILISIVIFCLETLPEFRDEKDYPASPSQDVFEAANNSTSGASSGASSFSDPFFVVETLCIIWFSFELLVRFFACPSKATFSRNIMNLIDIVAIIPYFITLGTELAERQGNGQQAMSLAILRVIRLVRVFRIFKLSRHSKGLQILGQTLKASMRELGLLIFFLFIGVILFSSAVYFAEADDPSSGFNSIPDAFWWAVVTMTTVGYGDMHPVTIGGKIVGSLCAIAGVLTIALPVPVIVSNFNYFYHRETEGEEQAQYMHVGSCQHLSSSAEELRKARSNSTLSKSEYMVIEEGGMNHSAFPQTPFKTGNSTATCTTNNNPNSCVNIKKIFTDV
T1 sequence (P16389 whole entry): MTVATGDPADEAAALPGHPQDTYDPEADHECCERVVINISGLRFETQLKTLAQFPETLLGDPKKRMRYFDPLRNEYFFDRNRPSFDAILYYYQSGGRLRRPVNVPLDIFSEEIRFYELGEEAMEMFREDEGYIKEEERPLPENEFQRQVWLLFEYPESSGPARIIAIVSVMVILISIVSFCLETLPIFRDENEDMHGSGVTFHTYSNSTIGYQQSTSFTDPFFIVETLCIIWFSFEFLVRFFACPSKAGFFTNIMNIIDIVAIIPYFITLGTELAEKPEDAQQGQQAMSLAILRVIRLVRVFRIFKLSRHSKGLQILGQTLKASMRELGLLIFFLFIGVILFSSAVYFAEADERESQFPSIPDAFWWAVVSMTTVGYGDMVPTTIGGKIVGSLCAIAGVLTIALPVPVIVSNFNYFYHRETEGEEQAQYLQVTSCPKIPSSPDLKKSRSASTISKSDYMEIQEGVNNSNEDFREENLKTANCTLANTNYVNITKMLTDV

Row | Structure (SMILES) | Selectivity ratio Kv1.2/Kv1.3 (human Kv1.2) | Selectivity ratio Kv1.1/Kv1.3 (human Kv1.1) | IC50 (Rat whole blood) [nM] | Selectivity ratio Kv1.6/Kv1.3 (human Kv1.6)
1 | CC[C@H](C)[C@@H]1NC(=O)[C@H](C)NC(=O)[C@H](CCCCN)NC(=O)[C@H](CC(C)C)NC(=O)[C@@H]2CSSC[C@@H](C(=O)N[C@@H](Cc3ccc(O)cc3)C(=O)N3CCC[C@H]3C(=O)N[C@@H](CCCNC(=N)N)C(N)=O)NC(=O)[C@H](CCCCN)NC(=O)[C@@H]3CSSC[C@H](NC(=O)[C@H](CCC(=O)O)NC(=O)[C@H](C(C)C)NC(=O)[C@H](CO)NC(=O)[C@H](C)NC(=O)[C@H](CO)NC(=O)[C@@H](NC(=O)[C@H](CCCNC(=N)N)NC(=O)[C@H](CCSC)NC(=O)[C@H](CC(=O)O)NC(=O)[C@H](CCSC)NC(=O)[C@@H](N)CC(N)=O)CSSC[C@H](NC(=O)[C@H](CCCCN)NC(=O)CNC(=O)[C@H](Cc4ccccc4)NC(=O)[C@H]([C@@H](C)CC)NC(=O)[C@H](CO)NC(=O)[C@H](CCCNC(=N)N)NC1=O)C(=O)N[C@@H](CCSC)C(=O)N[C@@H](CC(N)=O)C(=O)N[C@@H](CCCCN)C(=O)N[C@@H](CCCCN)C(=O)N3)C(=O)N[C@@H](CCCCN)C(=O)N[C@@H](CCC(N)=O)C(=O)N[C@@H](CCCCN)C(=O)N2 [compound 26] (H-NMDMRCSASVECKQKCLKAIRSIFGKCMNKKCKCYPR-NH2; disulfide 6-27, 12-32, 16-34) | 259 | >13700 | 0.82 | 2851
2 | CC[C@H](C)[C@@H]1NC(=O)[C@H](C)NC(=O)[C@H](CCCCN)NC(=O)[C@H](CC(C)C)NC(=O)[C@@H]2CSSC[C@@H](C(=O)N[C@@H](Cc3ccc(O)cc3)C(=O)N3CCC[C@H]3C(=O)N[C@@H](CCCNC(=N)N)C(N)=O)NC(=O)[C@H](CCCCN)NC(=O)[C@@H]3CSSC[C@H](NC(=O)[C@H](CCC(=O)O)NC(=O)[C@H](C(C)C)NC(=O)[C@H](CO)NC(=O)[C@H](C)NC(=O)[C@H](CO)NC(=O)[C@@H](NC(=O)[C@H](CCCNC(=N)N)NC(=O)[C@H](CCSC)NC(=O)[C@H](CC(=O)O)NC(=O)[C@H](CCSC)NC(=O)[C@@H](N)CC(N)=O)CSSC[C@H](NC(=O)[C@H](CCCCN)NC(=O)CNC(=O)[C@H](Cc4ccccc4)NC(=O)[C@H]([C@@H](C)CC)NC(=O)[C@H](CO)NC(=O)[C@H](CCC(=O)O)NC1=O)C(=O)N[C@@H](CCSC)C(=O)N[C@@H](CC(N)=O)C(=O)N[C@@H](CCCCN)C(=O)N[C@@H](CCCCN)C(=O)N3)C(=O)N[C@@H](CCCCN)C(=O)N[C@@H](CCC(N)=O)C(=O)N[C@@H](CCCCN)C(=O)N2 [compound 27] (H-NMDMRCSASVECKQKCLKAIESIFGKCMNKKCKCYPR-NH2; disulfide 6-27, 12-32, 16-34) | 615 | >10200 | 2.8 | >10200
3 | CC[C@H](C)[C@@H]1NC(=O)[C@H](C)NC(=O)[C@H](CCCCN)NC(=O)[C@H](CC(C)C)NC(=O)[C@@H]2CSSC[C@@H](C(=O)N[C@@H](Cc3ccc(O)cc3)C(=O)N3CCC[C@H]3C(=O)N[C@@H](CCCNC(=N)N)C(N)=O)NC(=O)[C@H](CCCCN)NC(=O)[C@@H]3CSSC[C@H](NC(=O)[C@H](CCC(=O)O)NC(=O)[C@H](C(C)C)NC(=O)[C@H](CO)NC(=O)[C@H]([C@@H](C)CC)NC(=O)[C@H](CO)NC(=O)[C@@H](NC(=O)[C@H](CCCNC(=N)N)NC(=O)[C@H](CCSC)NC(=O)[C@H](CC(=O)O)NC(=O)[C@H](CCSC)NC(=O)[C@@H](N)CC(N)=O)CSSC[C@H](NC(=O)[C@H](CCCCN)NC(=O)CNC(=O)[C@H](Cc4ccccc4)NC(=O)[C@H]([C@@H](C)CC)NC(=O)[C@H](CO)NC(=O)CNC1=O)C(=O)N[C@@H](CCSC)C(=O)N[C@@H](CC(N)=O)C(=O)N[C@@H](CCCCN)C(=O)N[C@@H](CCCCN)C(=O)N3)C(=O)N[C@@H](CCCCN)C(=O)N[C@@H](CCC(N)=O)C(=O)N[C@@H](CCCCN)C(=O)N2 [compound 30] (H-NMDMRCSISVECKQKCLKAIGSIFGKCMNKKCKCYPR-NH2; disulfide 6-27, 12-32, 16-34) | 169 | >11800 | 0.61 | >11800
4 | CC[C@H](C)[C@@H]1NC(=O)[C@H](C)NC(=O)[C@H](CCCCN)NC(=O)[C@H](CC(C)C)NC(=O)[C@@H]2CSSC[C@@H](C(=O)N[C@@H](Cc3ccc(O)cc3)C(=O)N3CCC[C@H]3C(=O)N[C@@H](CCCNC(=N)N)C(N)=O)NC(=O)[C@H](CCCCN)NC(=O)[C@@H]3CSSC[C@H](NC(=O)[C@H](CCC(=O)O)NC(=O)[C@H](CCCNC(=N)N)NC(=O)[C@H](CO)NC(=O)[C@H](C)NC(=O)[C@H](CO)NC(=O)[C@@H](NC(=O)[C@H](CCCNC(=N)N)NC(=O)[C@H](CCSC)NC(=O)[C@H](CC(=O)O)NC(=O)[C@H](CCSC)NC(=O)[C@@H](N)CC(N)=O)CSSC[C@H](NC(=O)[C@H](CCCCN)NC(=O)CNC(=O)[C@H](Cc4ccccc4)NC(=O)[C@H]([C@@H](C)CC)NC(=O)[C@H](CO)NC(=O)CNC1=O)C(=O)N[C@@H](CCSC)C(=O)N[C@@H](CC(N)=O)C(=O)N[C@@H](CCCCN)C(=O)N[C@@H](CCCCN)C(=O)N3)C(=O)N[C@@H](CCCCN)C(=O)N[C@@H](CCC(N)=O)C(=O)N[C@@H](CCCCN)C(=O)N2 [compound 31] (H-NMDMRCSASRECKQKCLKAIGSIFGKCMNKKCKCYPR-NH2; disulfide 6-27, 12-32, 16-34) | 94 | >25900 | 0.68 | 1778
5 | CC[C@H](C)[C@@H]1NC(=O)[C@H](C)NC(=O)[C@H](CCCCN)NC(=O)[C@H](CC(C)C)NC(=O)[C@@H]2CSSC[C@@H](C(=O)N[C@@H](Cc3ccc(O)cc3)C(=O)N3CCC[C@H]3C(=O)N[C@@H](CCCNC(=N)N)C(N)=O)NC(=O)[C@H](CCCCN)NC(=O)[C@@H]3CSSC[C@H](NC(=O)[C@H](CCC(N)=O)NC(=O)[C@H](C(C)C)NC(=O)[C@H](CO)NC(=O)[C@H](C)NC(=O)[C@H](CO)NC(=O)[C@@H](NC(=O)[C@H](CCCNC(=N)N)NC(=O)[C@H](CCSC)NC(=O)[C@H](CC(=O)O)NC(=O)[C@H](CCSC)NC(=O)[C@@H](N)CC(N)=O)CSSC[C@H](NC(=O)[C@H](CCCCN)NC(=O)CNC(=O)[C@H](Cc4ccccc4)NC(=O)[C@H]([C@@H](C)CC)NC(=O)[C@H](CO)NC(=O)CNC1=O)C(=O)N[C@@H](CCSC)C(=O)N[C@@H](CC(N)=O)C(=O)N[C@@H](CCCCN)C(=O)N[C@@H](CCCCN)C(=O)N3)C(=O)N[C@@H](CCCCN)C(=O)N[C@@H](CCC(N)=O)C(=O)N[C@@H](CCCCN)C(=O)N2 [compound 32] (H-NMDMRCSASVQCKQKCLKAIGSIFGKCMNKKCKCYPR-NH2; disulfide 6-27, 12-32, 16-34) | 83 | >15200 | 0.53 | 1272
